Source: US12306171B2, “Method for detecting indicator of immune-related disease” (MANDOM CORPORATION, priority 2018, dated 2025)

Experiments:
[1] = system: adhesive cell in peripheral blood mononuclear cells collected from an asthmatic patient; test: Morphology and adhesive cells of peripheral blood mononuclear cells from an asthmatic patient after culture in steroid-containing medium; format: cell-based, human; conditions: 10 μM steroid, 0.1 v/v % DMSO, 10 v/v % FBS RPMI1640, 37° C., 24 hours; asthmatic patient PBMC; FIG. 10
Experimental: Using 10 mL of peripheral blood collected from an asthmatic patient and 15 mL of a human lymphocyte-separation medium (manufactured by GE Healthcare, trade name: Ficoll-Paque PLUS), peripheral blood mononuclear cells were separated from the peripheral blood, according to a density gradient centrifugation method. Some of the separated peripheral blood mononuclear cells were cultured in a steroid-containing medium (RPMI1640 medium containing 10 μM hydrocortisone or 10 μM dexamethasone, 0.1 v/v % DMSO and 10 v/v % FBS) or a control medium (RPMI1640 medium containing 0.1 v/v % DMSO and 10 v/v % FBS) in a culture vessel at 37° C. for 24 hours. The morphology and state of the obtained cell were observed by an inverted phase contrast microscope (manufactured by Leica Microsystems, trade name: DM IL LED). […]

[2] = system: primary cilium of immune cell (peripheral blood mononuclear cells from an asthmatic patient); test: Formation rate of primary cilium in immune cell after culture in steroid-containing medium; format: cell-based, human; conditions: 10 μM steroid, 37° C., 24 hours; nonadherent cells from asthmatic patient PBMC; FIG. 11
Experimental: Using 10 mL of peripheral blood collected from an asthmatic patient and 15 mL of a human lymphocyte-separation medium (manufactured by GE Healthcare, trade name: Ficoll-Paque PLUS), peripheral blood mononuclear cells were separated from the peripheral blood, according to a density gradient centrifugation method. Some of the separated peripheral blood mononuclear cells were fixed with 4 v/v % PFA-containing PBS solution. The fixed cells were blocked and permeabilized by incubating the cells in a blocking/permeabilizing agent, to give a sample containing uncultured cells.
Some of the separated peripheral blood mononuclear cells were cultured in a steroid-containing medium (RPMI1640 medium containing 10 μM hydrocortisone or 10 μM dexamethasone, 0.1 v/v % DMSO and 10 v/v % FBS) at 37° C. for 24 hours. Then, nonadherent cells suspended in each medium were collected. Immediately after collection, each of the collected cells was fixed with 4 v/v % PFA-containing PBS solution. […]
Next, the total number of immune cells and the number of primary cilia in an immune cell were obtained by using observations of cells contained in each sample. Then, the formation rate of a primary cilium in an immune cell was calculated in accordance with the formula (Ic): [Formation rate of primary cilium in immune cell]=[(Number of primary cilia in immune cell)/(Total number of immune cells)]×100 (Ic). […]

Question: `C[C@]12CCC(=O)C=C1CC[C@@H]1[C@@H]2[C@@H](O)C[C@@]2(C)[C@H]1CC[C@]2(O)C(=O)CO` [hydrocortisone] was tested. Which “presence of adhesive cell after culture (morphology, phase contrast microscope)” value [1] did it give?
Answer: the adhesive cell disappears

Question: And the “formation rate of a primary cilium of the immune cell in the nonadherent cell, versus control medium” value [2]?
Answer: significantly lower
